Measurements from patent publication US12285407B2, “Bis-indolylmethane derivatives and uses thereof” (The University of The West Indies, priority 2018, dated 2025).
Values after ≈ are worked out from the molar mass of the structure shown. Where two headings read alike, the source gives them in different places.

Assays:
Pseudomonas aeruginosa [1] = assay: Rescue concentrations of SP-BIM that reactivate antibiotic; format: cell-based; conditions: Pseudomonas aeruginosa; P. aeruginosa; agent alone; read-out: MIC (single agent)
Bacillus cereus = assay: Adjuvant broth microdilution (antibiotic MIC with SP-BIM at 50 μg/mL); format: cell-based; conditions: antibiotic alone, Table 9
Pseudomonas aeruginosa [2] = assay: as above; format: cell-based; conditions: antibiotic alone
Enterococcus faecalis = assay: as above; format: cell-based; conditions: antibiotic alone
Escherichia coli O157:H7 = format: cell-based; conditions: antibiotic alone, no SP-BIM
clinical strains of MRSA = assay: Kirby Bauer disc diffusion susceptibility profile; format: cell-based, Staphylococcus aureus; conditions: for Zone of clearance: 35° C., 24 hours, average n=3; for Interpretive standard (resistant/susceptible): zones vs EUCAST breakpoints (Table 30)
Enterobacter cloacae = assay: Adjuvant broth microdilution (antibiotic MIC with SP-BIM at 50 μg/mL); format: cell-based; conditions: antibiotic alone
Klebsiella pneumoniae = assay: as above; format: cell-based; conditions: Klebsiella pneumonia; antibiotic alone, no SP-BIM
MRSA = assay: as above; format: cell-based, Staphylococcus aureus; conditions: antibiotic alone, Table 8 (series SP-BIMs 21-29)
[3] = test system: Escherichia coli ATCC 35218; assay: Broth microdilution MIC of SP-BIMs; format: cell-based; conditions: ATCC35218, SP-BIM alone, read-out: MIC Escherichia coli ATCC 35218
[4] = test system: Enterococcus faecium ATCC 19434; assay: Broth microdilution MIC of SP-BIMs; format: cell-based; conditions: ATCC19434, SP-BIM alone, read-out: MIC Enterococcus faecium ATCC 19434
[5] = test system: Corynebacterium diphtheriae ATCC 27010; assay: Broth microdilution MIC of SP-BIMs; format: cell-based; conditions: ATCC27010, SP-BIM alone, read-out: MIC Corynebacterium diphtheriae ATCC 27010
[6] = test system: Candida albicans ATCC 22972; assay: Broth microdilution MIC of SP-BIMs; format: cell-based; conditions: ATCC22972, SP-BIM alone, read-out: MIC Candida albicans ATCC 22972
[7] = test system: Streptococcus pyogenes ATCC 19615; assay: Broth microdilution MIC of SP-BIMs; format: cell-based; conditions: ATCC19615, SP-BIM alone, read-out: MIC Streptococcus pyogenes ATCC 19615
[8] = test system: Salmonella typhimurium ATCC 14028; assay: Broth microdilution MIC of SP-BIMs; format: cell-based; conditions: Salmonella enterica, read-out: MIC Salmonella tvpkimurium ATCC 14028
How it was run: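 S. typhimurium at ~10^6 CFU mL^−1 in cation-adjusted Mueller Hinton broth was exposed to twofold compound dilutions from 250 to 0.02 μg mL^−1 at 35° C. for 18 hours. Resazurin was then added, with 1 hour of shaking. MIC was the lowest concentration showing no blue-to-pink colour change.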

[9] = test system: Pseudomonas aeruginosa ATCC 27853; assay: Broth microdilution MIC of SP-BIMs; format: cell-based; conditions: ATCC27853, SP-BIM alone, read-out: MIC Pseudomonas aeruginosa ATCC 27853
[10] = test system: Klebsiella pneumoniae ATCC 49472; assay: Broth microdilution MIC of SP-BIMs; format: cell-based; conditions: ATCC49472, SP-BIM alone, read-out: MIC Klebisella pneumoniae ATCC 49472
[11] = test system: Staphylococcus aureus ATCC 12600; assay: Broth microdilution MIC of SP-BIMs; format: cell-based; conditions: ATCC12600, SP-BIM alone, read-out: MIC Staphylococcus aureus ATCC 12600
[12] = test system: panel of ATCC reference pathogen strains; assay: Broth microdilution MIC of SP-BIMs, panel summary in text; format: cell-based
From the text: Reference microorganisms used in this study included: Bacillus cereus (American Type Culture Collection (ATCC) No. 14579), Streptococcus pyogenes (ATCC No. 19615), Staphylococcus aureus (ATCC No. 12600), Enterococcus faecium (ATCC No. 19434), Corynebacterium diphtheriae (ATCC No. 27010), Escherichia coli (ATCC No. 35218), Salmonella typhimurium (ATCC No. 14028), Pseudomonas aeruginosa (ATCC No. 27853), Klebsiella pneumoniae (ATCC No. 49472), and Candida albicans (ATCC No. 22972).
Prior to each experiment, cultures were streaked onto clean BHI agar plates and incubated at 35° C. for 24 hours. Colonies of the respective cultures were selected and inoculated in phosphate buffer saline (pH 7.5) to a 0.5 McFarland turbidity standard (equivalent to 10^8 CFU mL^−1). […]
To assess the antibiotic properties of the library of SP-BIMs, the broth microdilution assay was performed in 96-well microplates according to the Clinical and Laboratory Standards Institute 2014 Guidelines (CLSI 2014). […] The MIC was recorded as the well with the lowest concentration of test compound where no color change was observed.
The antimicrobial activity of the library of substituted [bis(indol-3yl)]methanes was assessed against a panel of ATCC reference pathogen strains of clinical relevance. […]

Streptococcus pneumoniae = assay: Adjuvant broth microdilution (antibiotic MIC with SP-BIM at 50 μg/mL); format: cell-based; conditions: Streptococcus pneumoniae, Streptococcus pneumonia, SP-BIM at 50 μg mL^−1
[13] = test system: Bacillus cereus ATCC 14579; assay: Broth microdilution MIC of SP-BIMs; format: cell-based; conditions: ATCC14579, SP-BIM alone, read-out: MIC Bacillus cereus ATCC 14579
[14] = read-out: MIC of Kanamvcin with SP-BIM
[15] = read-out: MIC of Vancomvcin with SP-BIM

`O=C(N[C@H](CO)[C@H](O)c1ccc([N+](=O)[O-])cc1)C(Cl)Cl` [Chloramphenicol, chloramphenicol] was tested, and the MIC (Pseudomonas aeruginosa [1]) was 250 µg/mL (≈ 774 µM), the “MIC of antibiotic, No Compound” value (Bacillus cereus) was 4 µg/mL and the “MIC of antibiotic, No Compound” value (Pseudomonas aeruginosa [2]) was 250 µg/mL. For the same molecule, the “MIC of antibiotic, No Compound” value (Enterococcus faecalis) was 250 µg/mL, the “MIC of antibiotic, No Compound” value (Escherichia coli O157:H7) was 8 µg/mL and the Zone of clearance (clinical strains of MRSA; MRSA strain 1594) was 18.5 mm. The “Interpretive standard (resistant/susceptible)” value (clinical strains of MRSA; MRSA strain 1594) was “S”, the Zone of clearance (clinical strains of MRSA; MRSA strain 1621) was 24.5 mm and the “Interpretive standard (resistant/susceptible)” value (clinical strains of MRSA; MRSA strain 1621) was “S”. For the same molecule, the Zone of clearance (clinical strains of MRSA; MRSA strain 5455) was 22.0 mm, the “Interpretive standard (resistant/susceptible)” value (clinical strains of MRSA; MRSA strain 5455) was “S” and the Zone of clearance (clinical strains of MRSA; MRSA strain 5872) was 20.5 mm. The “Interpretive standard (resistant/susceptible)” value (clinical strains of MRSA; MRSA strain 5872) was “S”, the Zone of clearance (clinical strains of MRSA; MRSA strain 7153) was 18.0 mm and the “Interpretive standard (resistant/susceptible)” value (clinical strains of MRSA; MRSA strain 7153) was “S”. The Zone of clearance (clinical strains of MRSA; MRSA strain 7172) was 19.5 mm, the “Interpretive standard (resistant/susceptible)” value (clinical strains of MRSA; MRSA strain 7172) was “S” and the Zone of clearance (clinical strains of MRSA; MRSA strain 7698) was 16.5 mm. The “Interpretive standard (resistant/susceptible)” value (clinical strains of MRSA; MRSA strain 7698) was “S”, the Zone of clearance (clinical strains of MRSA; MRSA strain 10132) was 21.5 mm and the “Interpretive standard (resistant/susceptible)” value (clinical strains of MRSA; MRSA strain 10132) was “S”. For the same molecule, the “MIC of antibiotic, No Compound” value (Enterobacter cloacae) was 16 µg/mL, the “MIC of antibiotic, No Compound” value (Klebsiella pneumoniae) was greater than 250 µg/mL and the “MIC of antibiotic, No Compound” value (MRSA) was less than 0.5 µg/mL.

`c1ccc(C(c2c[nH]c3ccccc23)c2c[nH]c3ccccc23)cc1` [SP-BIM 1, bis(indol-3-yl)-phenylmethane] was tested, and the MIC [3] was greater than 250 µg/mL, the MIC [4] was 52 µg/mL and the MIC [5] was 125 µg/mL. The MIC [6] was 250 µg/mL, the MIC [7] was 83 µg/mL and the MIC [8] was 250 µg/mL. The MIC [9] was 250 µg/mL, the MIC [10] was greater than 250 µg/mL and the MIC [11] was greater than 250 µg/mL. The “antibacterial activity” value [12] was “displayed antibacterial activity, and only against Gram-positive bacteria”, the MIC (Streptococcus pneumoniae; [14]) was 125 µg/mL and the MIC (Streptococcus pneumoniae; [15]) was 1 µg/mL. For the same molecule, the MIC [13] was 83 µg/mL.

Molecule `c1ccc2c(C(c3ncc[nH]3)c3c[nH]c4ccccc34)c[nH]c2c1` [SP-BIM 4, [bis(indol-3-yl)imidazol-2-yl]methane] has an MIC [3] greater than 250 µg/mL, an MIC [4] of 104 µg/mL and an MIC [5] of 166 µg/mL. For the same molecule, the MIC [6] was 250 µg/mL, the MIC [7] was 104 µg/mL and the MIC [8] was 250 µg/mL. For the same molecule, the MIC [9] was 250 µg/mL, the MIC [10] was greater than 250 µg/mL and the MIC [11] was 166 µg/mL. The “antibacterial activity” value [12] was “displayed antibacterial activity, and only against Gram-positive bacteria”, the MIC (Streptococcus pneumoniae; [14]) was 125 µg/mL and the MIC (Streptococcus pneumoniae; [15]) was 1 µg/mL. For the same molecule, the MIC [13] was 125 µg/mL.
